Legend:
[1] = system: Rattus norvegicus; assay: Cmax in Sprague Dawley rat assessed as 6-Phenyl-5-[4-(qumolm-2-ylmethoxy)phenyl]pyridm-2(1H)-one at 11.04 mg/kg, po measured up to 8 hrs; format: ADME, organism-based; parameters: dose 11.04 mg/kg, route oral; details: in vivo
[2] = system: Rattus norvegicus; assay: Tmax in Sprague Dawley rat assessed as 6-Phenyl-5-[4-(qumolm-2-ylmethoxy)phenyl]pyridm-2(1H)-one at 11.04 mg/kg, po measured up to 8 hrs; format: ADME, organism-based; details: in vivo
[3] = system: Rattus norvegicus; assay: AUC (0 to t) in Sprague Dawley rat assessed as 6-Phenyl-5-[4-(qumolm-2-ylmethoxy)phenyl]pyridm-2(1H)-one at 11.04 mg/kg, po measured up to 8 hrs; format: ADME, organism-based; parameters: time < 8 hr, dose 11.04 mg/kg, route oral; details: in vivo
[4] = system: Cynomolgus monkey; assay: AUC (0 to 24 hrs) in cynomolgus monkey assessed as 6-(4-Fluorophenyl)-5-[4-quinolin-2-ylmethoxy)phenyl]-pyridine-2(1H)-one at […], iv; format: ADME, organism-based, Macaca fascicularis; parameters: time < 24 hr, dose 1.1 mg/kg, route intravenous; details: in vivo
[5] = system: Cynomolgus monkey; assay: AUC (0 to 24 hrs) in cynomolgus monkey assessed as 6-(4-Fluorophenyl)-5-[4-quinolin-2-ylmethoxy)phenyl]-pyridine-2(1H)-one at 11.04 mg/kg, po; format: ADME, organism-based, Macaca fascicularis; parameters: time < 24 hr, dose 11.04 mg/kg, route oral; details: in vivo
[6] = system: Canis familiaris; assay: AUC (0 to 24 hrs) in Beagle dog assessed as 6-(4-Fluorophenyl)-5-[4-quinolin-2-ylmethoxy)phenyl]-pyridine-2(1H)-one at […], iv; format: ADME, organism-based, Canis lupus familiaris; parameters: time < 24 hr, dose 1.1 mg/kg, route intravenous; details: in vivo
[7] = system: Rattus norvegicus; assay: Cmax in Sprague Dawley rat assessed as 6-(4-Fluorophenyl)-5-[4-quinolin-2-ylmethoxy)phenyl]-pyridine-2(1H)-one at 11.04 mg/kg, po measured up to 8 hrs; format: ADME, organism-based; parameters: dose 11.04 mg/kg, route oral; details: in vivo
[8] = system: Canis familiaris; assay: Cmax in Beagle dog assessed as 6-(4-Fluorophenyl)-5-[4-quinolin-2-ylmethoxy)phenyl]-pyridine-2(1H)-one at 11.04 mg/kg, po; format: ADME, organism-based, Canis lupus familiaris; parameters: dose 11.04 mg/kg, route oral; details: in vivo
[9] = system: Rattus norvegicus; assay: AUC (0 to t) in Sprague Dawley rat assessed as 6-(4-Fluorophenyl)-5-[4-quinolin-2-ylmethoxy)phenyl]-pyridine-2(1H)-one at 11.04 mg/kg, po measured after 8hrs; format: ADME, organism-based; details: in vivo
[10] = system: Rattus norvegicus; assay: Tmax in Sprague Dawley rat assessed as 6-(4-Fluorophenyl)-5-[4-quinolin-2-ylmethoxy)phenyl]-pyridine-2(1H)-one at 11.04 mg/kg, po measured after 8hrs; format: ADME, organism-based; details: in vivo
[11] = system: Canis familiaris; assay: AUC (0 to 24 hrs) in Beagle dog assessed as 6-(4-Fluorophenyl)-5-[4-quinolin-2-ylmethoxy)phenyl]-pyridine-2(1H)-one at 11.04 mg/kg, po; format: ADME, organism-based, Canis lupus familiaris; parameters: dose 11.04 mg/kg, time < 24 hr, route oral; details: in vivo
[12] = system: Cynomolgus monkey; assay: Cmax in cynomolgus monkey assessed as 6-(4-Fluorophenyl)-5-[4-quinolin-2-ylmethoxy)phenyl]-pyridine-2(1H)-one at 11.04 mg/kg, po; format: ADME, organism-based, Macaca fascicularis; parameters: dose 11.04 mg/kg, route oral; details: in vivo
[13] = system: Canis familiaris; assay: Tmax in Beagle dog assessed as 6-(4-Fluorophenyl)-5-[4-quinolin-2-ylmethoxy)phenyl]-pyridine-2(1H)-one at 11.04 mg/kg, po; format: ADME, organism-based, Canis lupus familiaris; details: in vivo
[14] = system: Rattus norvegicus; assay: AUC (0 to 24 hrs) in Sprague Dawley rat assessed as 6-(4-Fluorophenyl)-5-[4-quinolin-2-ylmethoxy)phenyl]-pyridine-2(1H)-one at […], iv; format: ADME, organism-based; parameters: dose 1.1 mg/kg, time < 24 hr, route intravenous; details: in vivo
[15] = system: Cynomolgus monkey; assay: Tmax in cynomolgus monkey assessed as 6-(4-Fluorophenyl)-5-[4-quinolin-2-ylmethoxy)phenyl]-pyridine-2(1H)-one at 11.04 mg/kg, po; format: ADME, organism-based, Macaca fascicularis; details: in vivo
[16] = system: Rattus norvegicus; assay: AUC (0 to t) in Sprague Dawley rat assessed as 6-(2,4-Difluorophenyl)-5-[4-(quinolin-2-ylmethoxy)phenyl]-pyridin-2(1H)-one at 11.04 mg/kg, po measured up to 8 hrs; format: ADME, organism-based; parameters: dose 11.04 mg/kg, time < 8 hr, route oral; details: in vivo
[17] = system: Rattus norvegicus; assay: Tmax in Sprague Dawley rat assessed as 6-(2,4-Difluorophenyl)-5-[4-(quinolin-2-ylmethoxy)phenyl]-pyridin-2(1H)-one at 11.04 mg/kg, po measured up to 8 hrs; format: ADME, organism-based; details: in vivo
[18] = system: Rattus norvegicus; assay: Cmax in Sprague Dawley rat assessed as 6-(2,4-Difluorophenyl)-5-[4-(quinolin-2-ylmethoxy)phenyl]-pyridin-2(1H)-one at 11.04 mg/kg, po measured up to 8 hrs; format: ADME, organism-based; parameters: dose 11.04 mg/kg, route oral; details: in vivo
[19] = Drug level in liver microsomes (unknown origin) treated with 6-(4-Fluorophenyl)-5-[4-quinolin-2-ylmethoxy)phenyl]-pyridine-2(1H)-one incubated for 60 mins measured by LC-MS/MS analysis in presence of UDPGA; format: ADME
[20] = Drug level in intestinal microsomes (unknown origin) treated with 6-(4-Fluorophenyl)-5-[4-quinolin-2-ylmethoxy)phenyl]-pyridine-2(1H)-one incubated for 60 mins measured by LC-MS/MS analysis in presence of UDPGA; format: ADME, Intestine

`CC(=O)Oc1ccc(-c2ccc(OCc3ccc4ccccc4n3)cc2)c(-c2ccccc2)n1` showed a Cmax [1] of 372 ng/mL, a Tmax [2] of 1 h and an AUCt [3] of 1497 ng·h/mL.

`CC(=O)Oc1ccc(-c2ccc(OCc3ccc4ccccc4n3)cc2)c(-c2ccc(F)cc2)n1` showed an AUC [4] of 1314 ng·h/mL, an AUC [5] of 345 ng·h/mL and an AUC [6] of 841 ng·h/mL. For the same compound, the Cmax [7] was 372 ng/mL, the Cmax [8] was 49 ng/mL and the AUCt [9] was 2436 ng·h/mL. The Tmax [10] was 1 h, the AUC [11] was 555 ng·h/mL and the Cmax [12] was 38 ng/mL. For the same compound, the Tmax [13] was 1 h, the AUC [14] was 492 ng·h/mL and the Tmax [15] was 6 h.

`CC(=O)Oc1ccc(-c2ccc(OCc3ccc4ccccc4n3)cc2)c(-c2ccc(F)cc2F)n1` showed an AUCt [16] of 1764 ng·h/mL, a Tmax [17] of 2 h and a Cmax [18] of 266 ng/mL.

For `CN(C)C(=O)Oc1ccc(-c2ccc(OCc3ccc4ccccc4n3)cc2)c(-c2ccc(F)cc2)n1`, the Cmax [7] was 42 ng/mL, the AUCt [9] was 182 ng·h/mL and the Tmax [10] was 1 h.

For `O=C(O)[C@H]1O[C@@H](Oc2ccc(-c3ccc(OCc4ccc5ccccc5n4)cc3)c(-c3ccc(F)cc3)n2)[C@H](O)[C@@H](O)[C@@H]1O`, the Drug metabolism [19] was “metabolite_detected” and the Drug metabolism [20] was “metabolite_detected”.

— ChEMBL document CHEMBL3632475, “Design, Synthesis, and Pharmacological Evaluation of 5,6-Disubstituted Pyridin-2(1H)-one Derivatives as Phosphodiesterase 10A (PDE10A) Antagonists” (J Med Chem, 2015)
